Results: patent US20210338613A1, “FORMULATIONS AND METHODS FOR TRANSDERMAL ADMINISTRATION OF KETONES” (DYVE BIOSCIENCES, INC., priority 2018, published 2021)

Legend:
[1] = test system: tumors; assay: Survival of tumor-bearing mice treated with PI3K inhibitor BKM120 (Example 3); type: in vivo, C57/BL6 mice; conditions: Treatment Group 1: BKM120 37.5 mg/kg daily oral gavage with standard chow; not statistically different from Control (6.1 days)
Method: In this experiment, β-hydroxybutyrate (βHB) in formulations of the disclosure was tested for its ability to enhance the efficacy of PI3K inhibitors and compared to a ketogenic diet.
In vivo tests were performed as follows: C57/BL6 mice 8 weeks of age They were injected with […] cells in a 1:1 mix of growth media and matrigel. and tumors were allowed to grow to a minimum diameter of 0.6 cm before the initiation of treatment. All mice were treated daily with the P3K inhibitor BKM120 (37.5 mg/kg) by oral gavage and were given either a normal chow diet, a ketogenic diet, or a normal chow diet with there topically applied βHB. Trial design was built to assess this primary outcome: survival time. Treatment groups randomized as follows: […]
b. Treatment Group 1: BKM120 treatment with standard rodent chow c. Treatment Group 2: BKM120 treatment with ketogenic rodent chow d. Treatment Group 3: BKM120 treatment with standard rodent chow with 100 μL of βHB formulation applied topically twice daily. Formulations detailed below

[2] = Distance run on a treadmill (Example 4); type: in vivo, Wistar rats; conditions: 5 days; topical = Formulation D 100 μL twice daily; ketone ester as 30% of calories
Method: (§1) In vivo tests were performed as follows: Wistar rats were treated with either topically applied βHB or a ketone ester diet. The experiment lasted for 5 days. Trial design was built to assess these primary outcomes: the effects on distance run on a treadmill, and on time to complete an 8 arm radial maze. Treatment groups randomized as follows: a. Control Group: standard diet (calorically matched to all treatment groups) b. Treatment Group 1: ketone ester diet with chow that is supplemented with (R)-3-hydroxybutyl (R)-3-hydroxybutyrate as 30% of calories c. […] Formulations detailed below [table]

[3] = Time to complete an 8 arm radial maze (Example 4); type: in vivo, Wistar rats; conditions: 5 days; topical = Formulation D 100 μL twice daily; ketone ester as 30% of calories
Method: as §1

[4] = Blood glucose levels in rats after ketone supplements (Example 5); type: in vivo, Sprague-Dawley rats; conditions: 10 g/kg intragastric gavage; 4-week study
Method: In this experiment, β-hydroxybutyrate (βHB) in formulations of the disclosure was tested for its ability to impact blood ketone and glucose levels and compared to oral delivery of various exogenous ketone supplements.
The experiment lasted for 28 days. Trial design was built to assess these primary outcomes: the effects on blood ketones and blood glucose. Blood samples were taken for analysis of glucose and βHB at baseline and, 0.5, 1, 4, 8, and 12 h post-treatment. Treatment groups randomized as follows:
Treatment Group 1: daily 10 g/kg dose via intragastric gavage of 1,3-butanediol (BD)
Treatment Group 2: daily 10 g/kg dose via intragastric gavage of sodium/potassium β-hydroxybutyrate (βHB) mineral salt (BMS)
Treatment Group 3: daily 10 g/kg dose via intragastric gavage of medium chain triglyceride oil (MCT)
Treatment Group 5: daily 10 g/kg dose via intragastric gavage of 1,3 butanediol acetoacetate diester (KE)
g. Treatment Group 6: 100 μL of βHB formulation applied topically daily.

[5] = test system: firefly luciferase-tagged syngeneic VM-M3 cells; assay: Survival of VM mice with metastatic cancer (Example 2); type: in vivo; conditions: VM-M3 implanted VM mice
Method: In this experiment, β-hydroxybutyrate (βHB) in formulations of the disclosure was tested for its ability to decrease tumor cell viability and prolong survival and compared to an orally delivered diet supplemented with either 1,3-butanediol (BD) or a ketone ester (KE), which are metabolized to the ketone bodies βHB and acetoacetate.
In vivo tests were performed as follows: Adult male inbred VM mice were implanted subcutaneously with firefly luciferase-tagged syngeneic VM-M3 cells. The mice were then fed a standard diet with no topical treatment, a standard diet supplemented with either 1,3-butanediol (BD) or a ketone ester (KE), or a standard diet with topically applied βHB. Trial design was built to assess this primary outcome: survival time. Treatment groups randomized as follows: […]
a. Control Group: standard diet rodent chow b. Treatment Group 1: standard diet rodent chow mixed with 20% 1,3-butanediol (BD) by volume and 1% saccharin for palatability c. Treatment Group 2: standard diet rodent chow mixed with 10% ketone esters (KE) by volume and 1% saccharin for palatability d. Treatment Group 3: standard diet rodent chow with 100 μL of βHB formulation applied topically twice daily. Formulations detailed below

Nc1cc(C(F)(F)F)c(-c2cc(N3CCOCC3)nc(N3CCOCC3)n2)cn1 [BKM120]
mean survival time [1]: 6.7 days

C[C@@H](O)CCOC(=O)C[C@@H](C)O [ketone ester diet, (R)-3-hydroxybutyl (R)-3-hydroxybutyrate]
mean increase in treadmill distance vs control [2]: 32% | mean decrease in time to solve the maze vs control [3]: 38%

CC(O)CCO (stereo not drawn) [oral BD, 1,3-butanediol]
effect on blood glucose [4]: did not significantly change blood glucose levels at any time point | mean increase in mean survival time versus Control Group ([5]; BD 20% or KE 10% in chow, topical = Formulation B 100 μL twice daily): 50.6% | mean survival time ([5]; Control Group 31.2 days, topical = Formulation B): 47.0 days
